Data set [1] deals with MKN45 cells. Kind of data set: Test D: cellular proliferation by 14C-thymidine pulse, MKN45 cells. It is filed as cell-based. The following applies: Homo sapiens, MKN-45, cellular proliferation by 14C-thymidine pulse; cell line not stated (HCT116 or MKN45). The procedure:
D) Measurement of Cellular Proliferation by 14C-Thymidine Pulse
The cells are sown in Cytostar 96-well plates under 180 μl for 4 hours at 37° C. and 5% CO2: The HCT116 cells at a rate of 2500 cells per well in DMEM medium+10% foetal calf serum+1% of L-glutamine and the MKN45 cells at a rate of 7500 cells per well in RPMI medium+10% foetal calf serum+1% of L-glutamine. After said incubation for 4 hours, the products are added under 10 μl in 20-times concentrated solution according to the method of dilution stated for ELISA. The products are tested at 10 concentrations in duplicate from 10000 nM to 0.3 nM in steps of 3.
After treatment for 72 h, add 10 μl of 14C-thymidine at 10 μCi/ml to obtain 0.1 μCi per well. The incorporation of 14C-thymidine is measured on a Micro-Beta (Perkin-Elmer) after 24 hours of pulse and 96 h of treatment.
All the stages of the test are automated on the BIOMEK 2000 or TECAN stations.

Data set [2] addresses T1, c-MET (Homo sapiens, UniProt P08581).
T1 construct: The recombinant DNA His-Tev-MET (956-1390) in pFastBac(Invitrogen); His (N, cleaved yes); Tev (TEV protease site) (N, cleaved yes); made in house; host or cells: SF21 insect cells (baculovirus, pFastBac)
The data set is described as follows: Test A: HTRF Met test in 96-well format. It is filed as biochemical. How it is done: I) Expression and Purification of MET, Cytoplasmic Domain
The recombinant DNA His-Tev-MET (956-1390) in pFastBac(Invitrogen) is transfected in insect cells and after several stages of viral amplification, the final stock of baculovirus is tested for expression of the protein of interest.
After infection for 72 h at 27° C. with the recombinant virus, the SF21 cell cultures are harvested by centrifugation and the cellular deposits are stored at −80° C.
The cellular deposits are resuspended in the lysis buffer (buffer A [50 mM HEPES, pH 7.5, 250 mM NaCl, Glycerol 10%, TECP 1 mM]; +cocktail of protease inhibitors Roche Diagnostics without EDTA, ref 1873580), stirred at 4° C. until homogeneous, then lysed mechanically using apparatus of the “Dounce” type.
After centrifugation, the lysis supernatant is incubated for 2 h at 4° C. with Nickel Chelate resin (His-Trap 6 Fast Flow™, GE HealthCare). After washing with 20 volumes of Tp A, the suspension is packed in a column, and the proteins are eluted with a gradient of buffer B ([…]+290 mM imidazole).
The fractions containing the protein of interest with a view to electrophoretic analysis (SDS PAGE) are collected, concentrated by ultrafiltration (cut-off 10 kDa) and injected in an exclusion chromatography column (Superdex™ 200, GE HealthCare) equilibrated with buffer A.
After enzymatic cleavage of the tag Histidine, the protein is reinjected in a new IMAC Nickel Chelate chromatography column (His-Trap 6 Fast Flow™, GE HealthCare) equilibrated with Buffer A. The fractions eluted with a gradient of buffer B and containing the protein of interest after electrophoresis (SDS PAGE), are finally collected and stored at −80° C.
For the production of autophosphorylated protein, the preceding fractions are incubated for 1 h at room temperature after adding ATP 2 mM, MgCl2 2 mM, and Na3VO4 4 mM. After stopping the reaction with 5 mM of EDTA, the reaction mixture is injected in a HiPrep desalting column (GE HealthCare) equilibrated beforehand with buffer A+Na3VO4 4 mM; the fractions containing the protein of interest (SDS PAGE analysis) are collected and stored at −80° C. The degree of phosphorylation is verified by mass spectrometry (LC-MS), and by peptide mapping.
A) HTRF Met test in 96-well format
In a final volume of 50 μl of enzymatic reaction mixture, final c-MET 5 nM is incubated in the presence of the molecule to be tested (for a final concentration range from 0.17 nM to 10 μM, final DMSO 3%) in buffer MOPS 10 mM pH 7.4, DTT 1 mM, Tween 20 0.01%. The reaction is initiated by the substrate solution to obtain the final concentrations of poly-(GAT) 1 μg/ml, ATP 10 μM and MgCl2 5 mM. After incubation for 10 min at room temperature, the reaction is stopped with a mix of 30 μl to obtain a final solution of Hepes 50 mM pH 7.5, potassium fluoride 500 mM, BSA 0.1% and EDTA 133 mM in the presence of 80 ng Streptavidin 61SAXLB Cis-Bio Int. and 18 ng anti-phosphotyrosine Mab PT66-Europium Cryptate per well. After 2 hours of incubation at room temperature, reading is carried out at 2 wavelengths 620 nm and 665 nm in a reader for the TRACE/HTRF technique and the percentage inhibition is calculated according to the 665/620 ratios.
For orientation: Time-resolved FRET reads energy transfer from a long-lived donor to a nearby acceptor.

The target in data set [3] is RON (Homo sapiens, UniProt Q04912). Kind of data set: Test B: HTRF RON test in 96-well format. Format: biochemical. The procedure:
B) HTRF RON Test in 96-Well Format
The inhibitory potency (IC50) of molecules on the enzymatic activity of kinase phosphorylation RON is determined by the HTRF technique. The activity of the kinase is evaluated by measuring the phosphorylation of the substrate polyGAT by the enzyme, in the presence of ATP.
Final RON 5 nM is incubated in the presence of the molecule to be tested (for a final concentration range from 0.17 nM to 10 μM, final DMSO 3%) in buffer MOPS 10 mM pH 7, DTT 1 mM, Tween 20 0.01%. This pre-incubation is performed in 96 half-well black plates in a volume of 35 μl for 30 minutes at room temperature.
The reaction is initiated by adding 15 μl of a mixture of substrates constituted of biotinylated poly-(GAT) 1 μg/ml final and ATP 10 μM final in the presence of MgCl2 5 mM final for a final volume of 50 μl.
After incubation for 30 min at room temperature, the reaction is stopped with 30 μl of a mixture of Hepes 100 mM final pH 7, potassium fluoride 400 mM final, BSA 0.1% and EDTA 133 mM in the presence of 80 ng per well of antibodies Streptavidin ITS-XL665 Cis-Bio Int. and 18 ng per well of anti-phosphotyrosine PT66 labelled with europium cryptate.
After incubation for 2 hours at room temperature, reading is carried out at 2 wavelengths 620 nm and 665 nm in a Genios TECAN reader for the TRACE/HTRF technique and the percentage inhibition is calculated according to the 665/620 ratios.

The target in data set [4] is T2, MET (Homo sapiens, UniProt P08581).
T2 construct: endogenous in cells; host or cells: MKN45 cells
The data set is described as follows: Test C: inhibition of the autophosphorylation of MET, ELISA technique (pppY1230, 1234, 1235), MKN45 cells. Format: cell-based. How it is done:
C) Inhibition of the Autophosphorylation of MET; ELISA Technique (pppY1230, 1234, 1235)
a) Cellular lysates: Sow the MKN45 cells in a 96-well plate (Cell coat BD polylysine) at 20 000 cells/well under 200 μl of medium RPMI+10% FCS+1% L-glutamine. Leave to adhere to the incubator for 24 h.
The cells are treated on the day after sowing with the products at 6 concentrations in duplicate for 1 h. At least 3 control wells are treated with the same amount of final DMSO.
Dilution of the products: Stock at 10 mM in pure DMSO—range from 10 mM to 30 μM with steps of 3 of pure DMSO—Intermediate dilutions to 1/50 in culture medium then taking of 10 μl added directly to the cells (200 μl): final range from 10000 to 30 nM.
At the end of incubation, carefully remove the supernatant and rinse with 200 μl of PBS. Then put 100 μl of lysis buffer directly in the wells on ice and incubate at 4° C. for 30 minutes. Lysis buffer: 10 mM Tris, HCl pH7.4, 100 mM NaCl, 1 mM EDTA, 1 mM EGTA, 1% Triton X-100, 10% glycerol, 0.1% SDS, 0.5% deoxycholate, 20 mM NaF, 2 mM Na3VO4, 1 mM PMSF and antiprotease cocktail.
The 100 μl of lysates are transferred to a V-bottomed polypropylene plate and ELISA is performed next or the plate is frozen at −80° C.
b) ELISA PhosphoMET BioSource Kit KH00281
In each well of the plate from the kit, add 70 μl of dilution buffer from the kit+30 μL of cell lysate or 30 μl of lysis buffer for the blank. Incubate for 2 h at room temperature, stirring gently.
Rinse the wells 4 times with 400 μl of washing buffer from the kit. Incubate with 100 μl of anti-phospho MET antibodies for 1 h at room temperature.
Rinse the wells 4 times with 400 μl of washing buffer from the kit. Incubate with 100 μl of anti-rabbit HRP antibodies for 30 minutes at room temperature (except for the wells with chromogen only).
Rinse the wells 4 times with 400 μl of washing buffer from the kit. Add 100 μL of chromogen and incubate for 30 minutes in the dark at room temperature.
Stop the reaction with 100 μl of stop solution. Read at once at […] 0.1 second in the Wallac Victor plate reader.
The products of formula (I) as defined above show cellular activity in this test between 10 nM and 10 μM.

We go through nine compounds from patent US8188078B2 (Sanofi-Aventis, priority 2007, dated 2012).

T1 sequence (P08581 956-1390): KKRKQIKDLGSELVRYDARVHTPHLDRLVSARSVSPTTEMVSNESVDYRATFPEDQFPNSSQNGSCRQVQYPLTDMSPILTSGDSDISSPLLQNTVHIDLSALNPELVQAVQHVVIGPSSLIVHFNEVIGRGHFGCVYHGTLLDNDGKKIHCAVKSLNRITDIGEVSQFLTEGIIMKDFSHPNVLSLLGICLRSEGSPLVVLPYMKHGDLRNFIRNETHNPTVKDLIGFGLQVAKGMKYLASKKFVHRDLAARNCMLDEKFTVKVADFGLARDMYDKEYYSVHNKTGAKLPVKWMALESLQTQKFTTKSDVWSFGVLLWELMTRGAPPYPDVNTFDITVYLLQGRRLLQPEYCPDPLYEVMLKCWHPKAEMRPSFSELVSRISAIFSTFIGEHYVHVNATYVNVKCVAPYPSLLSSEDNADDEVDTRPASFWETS
Sequence of RON (Q04912 25-1400): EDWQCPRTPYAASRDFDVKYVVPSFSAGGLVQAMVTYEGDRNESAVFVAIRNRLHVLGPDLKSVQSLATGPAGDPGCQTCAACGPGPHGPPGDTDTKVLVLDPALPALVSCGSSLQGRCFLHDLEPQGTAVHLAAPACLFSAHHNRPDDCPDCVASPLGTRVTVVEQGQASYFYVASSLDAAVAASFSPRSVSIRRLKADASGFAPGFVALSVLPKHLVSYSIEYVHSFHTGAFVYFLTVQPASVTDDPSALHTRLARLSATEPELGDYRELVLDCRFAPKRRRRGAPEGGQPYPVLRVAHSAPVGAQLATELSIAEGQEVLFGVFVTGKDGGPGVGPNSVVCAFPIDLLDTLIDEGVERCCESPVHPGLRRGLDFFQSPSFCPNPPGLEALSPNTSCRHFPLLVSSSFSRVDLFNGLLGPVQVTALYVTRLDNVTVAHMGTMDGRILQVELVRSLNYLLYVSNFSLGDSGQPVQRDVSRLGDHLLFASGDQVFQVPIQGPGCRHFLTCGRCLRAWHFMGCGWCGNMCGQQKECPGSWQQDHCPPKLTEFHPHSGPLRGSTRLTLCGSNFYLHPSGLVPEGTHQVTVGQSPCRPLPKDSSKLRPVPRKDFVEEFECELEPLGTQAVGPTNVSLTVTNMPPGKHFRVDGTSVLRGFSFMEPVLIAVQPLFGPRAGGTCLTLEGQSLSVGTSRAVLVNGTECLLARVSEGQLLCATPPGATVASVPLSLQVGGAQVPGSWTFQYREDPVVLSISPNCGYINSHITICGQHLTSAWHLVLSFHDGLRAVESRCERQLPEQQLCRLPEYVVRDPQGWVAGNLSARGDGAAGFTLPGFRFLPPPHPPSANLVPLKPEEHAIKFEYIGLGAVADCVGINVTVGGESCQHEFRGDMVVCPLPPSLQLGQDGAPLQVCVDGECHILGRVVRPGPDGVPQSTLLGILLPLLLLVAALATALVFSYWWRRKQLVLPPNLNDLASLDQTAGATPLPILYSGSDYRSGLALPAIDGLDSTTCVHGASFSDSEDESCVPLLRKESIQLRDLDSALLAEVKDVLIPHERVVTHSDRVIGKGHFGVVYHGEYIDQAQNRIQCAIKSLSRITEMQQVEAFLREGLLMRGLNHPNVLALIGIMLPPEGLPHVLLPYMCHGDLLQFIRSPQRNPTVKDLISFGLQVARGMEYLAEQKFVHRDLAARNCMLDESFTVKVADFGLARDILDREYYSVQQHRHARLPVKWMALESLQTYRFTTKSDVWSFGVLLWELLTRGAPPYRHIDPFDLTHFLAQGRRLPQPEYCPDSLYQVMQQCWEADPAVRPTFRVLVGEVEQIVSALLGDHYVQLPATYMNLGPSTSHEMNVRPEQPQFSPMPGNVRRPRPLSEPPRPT
T2 sequence (P08581 25-1390): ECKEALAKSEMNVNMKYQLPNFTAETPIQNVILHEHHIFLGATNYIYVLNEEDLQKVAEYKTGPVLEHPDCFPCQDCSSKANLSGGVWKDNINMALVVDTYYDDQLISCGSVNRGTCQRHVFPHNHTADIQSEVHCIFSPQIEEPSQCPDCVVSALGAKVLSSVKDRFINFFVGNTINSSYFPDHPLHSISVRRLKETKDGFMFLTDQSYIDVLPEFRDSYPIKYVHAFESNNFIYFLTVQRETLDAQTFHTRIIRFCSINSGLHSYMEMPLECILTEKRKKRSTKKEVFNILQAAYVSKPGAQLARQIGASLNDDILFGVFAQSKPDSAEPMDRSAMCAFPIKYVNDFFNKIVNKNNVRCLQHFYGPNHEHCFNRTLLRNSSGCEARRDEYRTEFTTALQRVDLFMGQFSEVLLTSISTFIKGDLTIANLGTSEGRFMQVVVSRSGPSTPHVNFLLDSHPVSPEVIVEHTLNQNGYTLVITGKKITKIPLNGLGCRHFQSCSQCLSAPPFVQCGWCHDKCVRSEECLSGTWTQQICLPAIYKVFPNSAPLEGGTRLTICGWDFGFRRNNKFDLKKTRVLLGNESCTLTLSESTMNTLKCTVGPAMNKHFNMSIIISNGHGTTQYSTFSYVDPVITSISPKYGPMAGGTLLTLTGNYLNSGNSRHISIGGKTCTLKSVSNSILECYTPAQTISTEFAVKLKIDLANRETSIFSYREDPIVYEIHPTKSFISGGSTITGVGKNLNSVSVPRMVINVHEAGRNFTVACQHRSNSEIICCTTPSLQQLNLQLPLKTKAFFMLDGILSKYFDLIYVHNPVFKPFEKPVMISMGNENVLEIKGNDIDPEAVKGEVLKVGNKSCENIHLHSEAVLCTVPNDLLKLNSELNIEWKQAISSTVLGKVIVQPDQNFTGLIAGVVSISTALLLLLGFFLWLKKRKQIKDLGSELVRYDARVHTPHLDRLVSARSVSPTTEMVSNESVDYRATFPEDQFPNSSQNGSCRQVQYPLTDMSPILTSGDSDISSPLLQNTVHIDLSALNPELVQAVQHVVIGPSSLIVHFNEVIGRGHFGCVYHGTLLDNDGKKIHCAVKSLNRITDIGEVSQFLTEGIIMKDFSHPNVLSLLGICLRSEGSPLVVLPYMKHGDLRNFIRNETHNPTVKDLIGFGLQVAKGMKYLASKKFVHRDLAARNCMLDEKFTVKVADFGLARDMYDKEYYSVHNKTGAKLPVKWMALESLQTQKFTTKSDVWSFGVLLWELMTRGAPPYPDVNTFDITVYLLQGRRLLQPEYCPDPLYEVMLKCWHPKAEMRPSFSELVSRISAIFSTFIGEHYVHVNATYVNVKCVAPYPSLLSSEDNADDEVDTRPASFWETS

In the case of `O=C(NCCN1CCOCC1)Nc1nc2ccc(OCc3c(Cl)cccc3Cl)cc2[nH]1` [Example 1, 1-{6-[(2,6-dichlorobenzyl)oxy]-1H-benzimidazol-2-yl}-3-(2-morpholin-4-ylethyl)urea], the melting point (as a rule, the temperature, or range, at which the solid turns liquid) lay within 256 to 259 °C. Besides, the IC50 – broadly, the concentration that gives 50% inhibition – in data set [1] is more than 10000 nM. In data set [2], this compound came in with an IC50 of less than 100 nM. The compound further came in with an IC50 in data set [3] of 500 to 10000 nM.

Consider `O=C(NCCCN1CCOCC1)Nc1nc2ccc(OCc3c(Cl)cccc3Cl)cc2s1` [Example 11, 1-{6-[(2,6-dichlorobenzyl)oxy]-1,3-benzothiazol-2-yl}-3-(3-morpholin-4-ylpropyl)urea], for which the melting point is 162 to 166 °C. Moreover, the IC50 in data set [1] is more than 10000 nM. For the same compound, the IC50 in data set [2] was less than 100 nM. In addition, the IC50 in data set [3] fell in the range of 500 to 10000 nM.

Regarding `O=C(NCCN1CCOCC1)Nc1nc2ccc(OCc3c(F)cccc3F)cc2s1` [Example 13, 1-{6-[(2,6-difluorobenzyl)oxy]-1,3-benzothiazol-2-yl}-3-(2-morpholin-4-ylethyl)urea], the melting point came out at 219 °C. In data set [1], this compound returned an IC50 of more than 10000 nM. The IC50 in data set [2] is less than 100 nM. Further, the IC50 in data set [3] was 500 to 10000 nM.

For the compound `CC(Oc1ccc2nc(NC(=O)NCCN3CCOCC3)sc2c1)c1ccccc1` (stereo not drawn) [Example 14, 1-(2-morpholin-4-ylethyl)-3-[6-(1-phenylethoxy)-1,3-benzothiazol-2-yl]urea], the melting point came out at 161 °C. The IC50 in data set [1] was more than 10000 nM. The compound further gave an IC50 in data set [2] of 100 to 10000 nM. In addition, in data set [3], the half-inhibitory concentration (IC50) lay within 500 to 10000 nM.

In turn, `O=C(NCCN1CCOCC1)Nc1nc2ccc(OCc3c(F)cccc3Cl)cc2s1` [Example 15, 1-{6-[(2-chloro-6-fluorobenzyl)oxy]-1,3-benzothiazol-2-yl}-3-(2-morpholin-4-ylethyl)urea] showed a melting point of 210 °C. In data set [1], this compound registered an IC50 of 500 to 10000 nM. The IC50 in data set [2] was less than 100 nM. This compound also displayed an IC50 in data set [3] of 500 to 10000 nM.

`CC(Oc1cc2sc(N)nc2cc1F)c1c(Cl)ccc(F)c1Cl` (stereo not drawn) [Example 30, 6-[1-(2,6-dichloro-3-fluorophenyl)ethoxy]-5-fluoro-1,3-benzothiazol-2-amine]: the melting point came to 223 °C. This compound yielded a 50% inhibitory concentration (IC50) in data set [1] of more than 10000 nM. In data set [2], this compound came in with an IC50 of less than 100 nM. Moreover, the IC50 in data set [3] fell in the range of 500 to 10000 nM.

Consider `CC(Oc1ccc2nc(NC(=O)NCCN3CCOCC3)sc2c1)c1cc(F)cc(F)c1` (stereo not drawn) [Example 62, 1-{6-[1-(3,5-difluorophenyl)ethoxy]-1,3-benzothiazol-2-yl}-3-(2-morpholin-4-ylethyl)urea], for which the melting point stood at 179 °C. The same compound yielded an IC50 in data set [1] of more than 10000 nM. In data set [2], this compound registered an IC50 of 100 to 10000 nM. Moreover, the IC50 in data set [3] fell in the range of 500 to 10000 nM.

In turn, `CC(Oc1cc2sc(NC(=O)NCCN3CCCCC3)nc2cc1F)c1c(Cl)ccc(F)c1Cl` (stereo not drawn) [Example 80, 1-{6-[1-(2,6-dichloro-3-fluorophenyl)ethoxy]-5-fluoro-1,3-benzothiazol-2-yl}-3-[2-(piperidin-1-yl)ethyl]urea] showed a melting point of 186 to 195 °C. Further, in data set [1], the IC50 lay within 500 to 10000 nM. Further, the IC50 in data set [2] is less than 100 nM. The IC50 in data set [3] lay within 500 to 10000 nM.

`CCC(Oc1ccc2nc(NC(=O)NCCN3CCOCC3)sc2c1)c1c(Cl)cccc1Cl` (stereo not drawn) [Example 122, 1-{6-[1-(2,6-dichlorophenyl)propoxy]-1,3-benzothiazol-2-yl}-3-[2-(morpholin-4-yl)ethyl]urea] displayed a melting point of 200 °C. The compound also registered an IC50 in data set [1] of 500 to 10000 nM. Also, the IC50 in data set [2] was less than 100 nM. This compound returned an IC50 in data set [4] of 500 to 10000 nM.
